Test results reported in patent US20110245105A1, “Methods and Kits for Direct Detection and Susceptibility Profiling of Beta-Lactam Resistant Bacteria” (YISSUM RESEARCH DEVELOPMENT COMPANY OF THE HEBREW …, priority 2008, published 2011).

Columns and labels:
Type in all cases: cell-based
K. pneumoniae [1] = experiment: conventional lab procedures [CLP], resistance of bacterial isolates; settings: profile r19 of Table 2
Text: (§1) The same specimens were examined using conventional lab procedures [CLP] that determined the identity of the bacterial isolates and their resistance to the above beta-lactams.

Morg. morganii [2] = experiment: as above; settings: 1 sample (r23)
Text: as §1

E. faecalis = experiment: ART strip test on urine sample pellets; settings: 4 samples (r27)
Method: (§2) Filter paper (Whatman no. 3) strips impregnated with 50 mM potassium iodide and 10 mM iodine in 0.75% aqueous starch solution were divided into 6 test areas. Appropriate antibiotic substrates were prepared at a final concentration of 20 mg/mL. Each test area was impregnated with 30 μL of the appropriate solution. The strips were then dried in a lyophilizer and stored with a desiccant at 4° C.
(§3) One mL urine samples were spun 2 minutes at 3000 RPM in room temperature. Supernatants were removed and aliquots of the resulting pellets were streaked on standard slides.
(§4) The product of the enzymatic degradation of a beta-lactam antibiotic removes the iodine from the ART strip and causes local decolorization in that strip. Typically, a detection kit consists of two slides, as illustrated in FIG. 2. The bottom slide is streaked with the sample to be tested. The top slide (lid) carries the ART strip which is activated when each test area on the strip receives 25 μL of the activator solution consisting of 40 mg gelatin in 100 mL phosphate buffer pH 6.5. The test starts when the top slide carrying the freshly activated ART strip contacts the bottom slide carrying the sample. It may be carried out at ambient temperatures but will be accelerated by warming-up to 41° C. […] Result is confirmed if no decolorization took place in the absence of the bacteria (the background of that test area) or in the absence of the antibiotic (as in Test Area 2 in FIG. 1).
(§5) One mL urine sample pellets were collected as described in Example 1 and each streaked on a slide. The strip of the invention (termed ART for Antibiotics Resistance Test) was used to test for beta-lactamase and its ability to degrade Ceftazidime [Caz], Ceftriaxone [Cro], Cefuroxime [Cxm] and Ampicillin [Amp]. The strip, containing iodine and starch and divided to areas containing each of the abovementioned antibiotics, and attached to a plain slide, was activated as shown above, and placed on the streaked slide. After 5-15 minutes at 33° C.-38° C. the slide was scanned and recorded.

K. pneumoniae [3] = experiment: ART strip test on urine sample pellets
Method: as §2, §3, §4, §5

Staphylococcus sp. = experiment: ART strip test on urine sample pellets
Method: as §2, §3, §4, §5

Acinetobacter sp. = experiment: ART strip test on urine sample pellets; settings: 1 sample (r29)
Method: as §2, §3, §4, §5

Str. agalactiae = experiment: ART strip test on urine sample pellets; settings: 3 samples (r34)
Method: as §2, §3, §4, §5

Citr. koseri = experiment: ART strip test on urine sample pellets; settings: 2 samples (r25)
Method: as §2, §3, §4, §5

Morg. morganii [4] = experiment: ART strip test on urine sample pellets
Method: as §2, §3, §4, §5

K. oxytoca = experiment: ART strip test on urine sample pellets
Method: as §2, §3, §4, §5

Prot. mirabilis = experiment: ART strip test on urine sample pellets
Method: as §2, §3, §4, §5

Citrobacter freundii = experiment: modular antibiotic resistance detection kit on urine sample pellets; settings: profile r23, ESBL Pos; note: key: R = resistant; S = sensitive
Method: (§6) A modular antibiotic resistance detection kit offers more flexibility in testing different resistance profiles. In the modular detection kit exemplified here, the ART strip is replaced by filter paper segments glued to a slide, each segment impregnated with a single antibiotic.
(§7) Specifically, pathogen samples were tested using filter papers impregnated with the following beta-lactam antibiotics: ampicillin [Amp], augmentin (a combination of amoxicillin and clavulanic acid) [AMC], clavulanic acid (Reduced Resistance test) [RR], ceftazidime [Caz] and either imipenem or meropenem [CPM]. The impregnation details of the fragments were as in the previous Examples.
(§8) Filter paper (Whatman no. 3] strips impregnated with Assay Reagent solution were used as “indicator strips”. An indicator strip was attached to the plain top slide as shown in FIG. 2. Aliquots of the pellets of the urine samples tested were placed on each of the segments. The test was started by placing the activated indicator-strip-slide, on the modular antibiotic slide. The scan results obtained after 5-10 min at 38° C. are illustrated schematically in FIG. 2 where all segments, except for the negative (no antibiotic) control, show decolorization indicating resistance to each antibiotic in that array.
(§9) Samples resistant to ceftazidime but affected by clavulanic acid were assumed to contain extended spectrum beta lactamases (ESBLs). The ‘Confirmed’ detections column summarizes the number of CLP-validated results out of the total findings recorded.

K. pneumoniae [5] = experiment: as above
Method: as §6, §7, §8, §9

Proteus mirabilis = experiment: as above
Method: as §6, §7, §8, §9

E. coli [6] = experiment: as above
Method: as §6, §7, §8, §9

E. coli [7] = experiment: ART strip (Antibiotics Resistance Test), iodometric detection of beta-lactam hydrolysis by un-cultured urine sample pellets
Method: as §2, §3, §4, §5

E. coli [8] = experiment: conventional lab procedures [CLP], resistance of bacterial isolates; settings: profile r9 of Table 2; note: key: R = resistant; S = sensitive
Text: as §1

[9] = system: carbapenem-resistant Enterobacteriaceae; experiment: modular kit for detection of CRE in urine sample; settings: CRE-containing urine sample pellets; 12 minutes at 38° C.
Method: The kit constructed as a twin-slide [as illustrated by FIG. 1] carries an “OCTET” strip impregnated [as in Example 1] with an array of eight beta-lactam antibiotics and 1 non-beta-lactam control [S].
To illustrate the life-saving potential of the proposed technology which eliminates delays in diagnosis of carbapenem-resistant members of the Enterobacteriaceae family (CRE), a CRE sample was analyzed using the invention's modular kit, containing ampicillin, ceftazidime, augmentin, cefotaxime, imipenem, cefuroxime, meropenem and ceftriaxone as beta-lactamase substrates and a non-beta-lactam antibiotic, served as a negative control.
Filter paper segments were glued to a slide, each segment impregnated with a single antibiotic of the abovementioned antibiotics and streaked with carbapenem-resistant Enterobacteriaceae-containing urine sample pellets, prepared as described in Examples 1 to 3. The slide was contacted with indicator strips attached to a slide.

[10] = K. pneumoniae (5 samples), profile r17, ESBL Pos
[11] = K. pneumoniae, profile r18, ESBL Pos
[12] = K. pneumoniae, profile r20, ESBL Pos
[13] = K. pneumoniae, profile r21, ESBL Neg
[14] = Proteus mirabilis (3 samples), profile r25, ESBL Pos
[15] = Proteus mirabilis, profile r26, ESBL Pos
[16] = Proteus mirabilis, profile r27, ESBL Neg
[17] = E. coli (16 samples), profile r6, ESBL Neg, 5-10 min at 38° C.

CC(C)(O/N=C(\C(=O)N[C@@H]1C(=O)N2C(C(=O)[O-])=C(C[n+]3ccccc3)CS[C@H]12)c1csc(N)n1)C(=O)O [Caz, Ceftazidime]
CLP result differing from kit (in brackets) (K. pneumoniae [1]): S | CLP result differing from ART (in brackets) (Morg. morganii [2]): R | resistance profile predicted by ART (E. faecalis): S[nd] | resistance profile predicted by ART (K. pneumoniae [3]; 1 sample (r12)): S | resistance profile predicted by ART (K. pneumoniae [3]; 8 samples (r11)): S | resistance profile predicted by ART (K. pneumoniae [3]; 11 samples (r10), MDR): R | resistance profile predicted by ART (Staphylococcus sp.; 1 sample (r31)): S | resistance profile predicted by ART (Staphylococcus sp.; 1 sample (r32)): S | resistance profile predicted by ART (Acinetobacter sp.): S | resistance profile predicted by ART (Str. agalactiae): S[nd] | resistance profile predicted by ART (Citr. koseri): S | resistance profile predicted by ART (Morg. morganii [4]; 1 sample (r22)): S | resistance profile predicted by ART (Morg. morganii [4]; 1 sample (r23)): S | resistance profile predicted by ART (K. oxytoca; 1 sample (r15)): S | resistance profile predicted by ART (K. oxytoca; 3 samples (r14)): S | resistance profile predicted by ART (Prot. mirabilis; 1 sample (r18)): S | resistance profile predicted by ART (Prot. mirabilis; 1 sample (r19)): S | resistance profile predicted by ART (Prot. mirabilis; 1 sample (r20)): R | resistance profile predicted by ART (Prot. mirabilis; 6 samples (r17)): S | resistance found with modular kit (Citrobacter freundii): R | resistance found with modular kit (K. pneumoniae [5]; [10]): R | resistance found with modular kit (K. pneumoniae [5]; [11]): R | resistance found with modular kit (K. pneumoniae [5]; K. pneumoniae, profile r19): R | resistance found with modular kit (K. pneumoniae [5]; [12]): R | resistance found with modular kit (K. pneumoniae [5]; [13]): S | resistance found with modular kit (Proteus mirabilis; [14]): R | resistance found with modular kit (Proteus mirabilis; [15]): R | resistance found with modular kit (Proteus mirabilis; [16]): S | resistance found with modular kit (E. coli [6]; [17]): S | resistance found with modular kit (E. coli [6]; E. coli, profile r9, ESBL Neg): S | resistance found with modular kit (E. coli [6]; E. coli, profile r10, ESBL Neg): S | resistance found with modular kit (E. coli [6]; E. coli, profile r11, ESBL Neg): S | resistance found with modular kit (E. coli [6]; E. coli, profile r12, ESBL Neg): S | resistance found with modular kit (E. coli [6]; E. coli, profile r14, ESBL Pos): R | resistance found with modular kit (E. coli [6]; E. coli, profile r15, ESBL Pos): R | resistance profile predicted by ART (E. coli [7]; 3 samples (r8), MDR): R | resistance profile predicted by ART (E. coli [7]; 12 samples (r7)): S | resistance profile predicted by ART (E. coli [7]; 28 samples (r6), 5-15 minutes at 33° C.-38° C.): S

augmentin [AMC]
CLP result differing from kit (in brackets) (E. coli [8]): S | hydrolysis by the tested specimen (decolorization) [9]: hydrolysis | resistance found with modular kit (Citrobacter freundii): R | resistance found with modular kit (K. pneumoniae [5]; [10]): I | resistance found with modular kit (K. pneumoniae [5]; [11]): R | resistance found with modular kit (K. pneumoniae [5]; K. pneumoniae, profile r19): R | resistance found with modular kit (K. pneumoniae [5]; [12]): R | resistance found with modular kit (K. pneumoniae [5]; [13]): S | resistance found with modular kit (Proteus mirabilis; [14]): I | resistance found with modular kit (Proteus mirabilis; [15]): S | resistance found with modular kit (Proteus mirabilis; [16]): R | resistance found with modular kit (E. coli [6]; [17]): S | resistance found with modular kit (E. coli [6]; E. coli, profile r7): S | resistance found with modular kit (E. coli [6]; E. coli, profile r8): S | resistance found with modular kit (E. coli [6]; E. coli, profile r9, ESBL Neg): R | resistance found with modular kit (E. coli [6]; E. coli, profile r10, ESBL Neg): I | resistance found with modular kit (E. coli [6]; E. coli, profile r11, ESBL Neg): I | resistance found with modular kit (E. coli [6]; E. coli, profile r12, ESBL Neg): I | resistance found with modular kit (E. coli [6]; E. coli, profile r13): R | resistance found with modular kit (E. coli [6]; E. coli, profile r14, ESBL Pos): R | resistance found with modular kit (E. coli [6]; E. coli, profile r15, ESBL Pos): R
